Read-outs that look alike come from different tables or passages of the source.
What was measured:
[1] = Animal biodistribution of 99mTc complexes in guinea pigs; assay type: in vivo, guinea pig;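 note: Heart, liver and kidney plus urine values are percent of the injected material, background-corrected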
Procedure: (§1) Percentage biodistribution of injected material was calculated (after correction for background) for all organs using the formula: [formula]
(§2) Since only samples of muscle and blood were taken, the percentage in these tissues was calculated assuming blood and muscle to represent 5.8 and 43% of total animal weight respectively using the formula: [formula]
Since only samples of muscle and blood were taken, the percentage in these tissues was calculated assuming blood and muscle to represent 5.8 and 43% of total animal weight respectively using the formula: [formula] where CF= 0.058 for blood

[2] = rat, in vivo
Procedure: In vivo biodistribution: 0.1 ml Tc^99m prep was injected i.v. into a laterial tail vein of 6 anaesthetised rats.
At 2 minutes and 60 minutes post-injection, 3 rats were sacrificed by decapitation, bled from the neck and dissected. The following organs were removed at dissection: kidney; bladder(+ urine), lung, liver, spleen, stomach, small intestine, large intestine, brain (weighed), heart (weighed), thyroid and samples of blood (weighed) and muscle (weighed), the residual carcass and the tail (injection site). Subsequently samples were counted in an automatic twin crystal gamma counter.
as §1, §2

[3] = Table VIII, [TcL3 ]^+ complex of the ligand, guinea pigs, 2 min p.i.
[4] = Table VIII, [TcL3 ]^+ complex of the ligand, guinea pigs, 60 min p.i.
[5] = from Table VIII, [TcL3 ]^+, guinea pigs, 60'
[6] = guinea pig, 60 min p.i. in vivo, mean
[7] = guinea pig, 2 min p.i. in vivo, mean

In the case of `COCP(C)CCP(C)COC` (stereo not shown) [Example 1, MeP(CH2 OMe)-(CH2)2 -(Me)P(CH2 OMe)], the Heart [1, 3] is reported as 0.98 % injected dose, the “Heart/Blood Counts/Gram ratio” value [1, 3] is reported as 1.63 and the “Heart/Liver Counts/Gram ratio” value [1, 3] is reported as 0.82. For the same molecule, the “Heart/Muscle Counts/Gram ratio” value [1, 3] was 8.18, the Liver [1, 3] was 24.0 % injected dose and the Heart [1, 4] was 0.83 % injected dose. The “Heart/Blood Counts/Gram ratio” value [1, 4] was 10.5, the “Heart/Liver Counts/Gram ratio” value [1, 4] was 0.72 and the “Heart/Muscle Counts/Gram ratio” value [1, 4] was 4.29. For the same molecule, the Liver [1, 4] was 13.3 % injected dose, the “heart uptake and retention compared with dmpe complex” value ([1]; from Table VIII, [TcL3 ]^+, guinea pigs, 2' and 60') was “increased heart uptake and retention at 2' and 60'” and the “heart/blood ratio compared with dmpe complex” value [1, 5] was “better”. The “heart/liver ratio compared with dmpe complex” value [1, 5] was “better”, the “heart/muscle ratio compared with dmpe complex” value [1, 5] was “better” and the “liver retention compared with dmpe complex” value [1, 5] was “much lower liver retention at 60'”. The “heart uptake and retention compared with dmpe complex” value [2] was “significantly higher heart uptake and retention at 2' and 60'”, the “heart/liver ratio compared with dmpe complex” value [2] was “significantly increased heart/liver ratio at 60'” and the “liver retention compared with dmpe complex” value [2] was “reduced liver retention at 60'”. For the same molecule, the Heart ([2]; 2 min) was 1.71 % injected dose, the “Heart/Blood Counts/Gram ratio” value ([2]; 2 min) was 4.19 and the “Heart/Liver Counts/Gram ratio” value ([2]; 2 min) was 1.81. For the same molecule, the “Heart/Muscle Counts/Gram ratio” value ([2]; 2 min) was 6.61, the Liver ([2]; 2 min) was 12.6 % injected dose and the Heart ([2]; 60 min) was 1.42 % injected dose. For the same molecule, the “Heart/Blood Counts/Gram ratio” value ([2]; 60 min) was 25.7, the “Heart/Liver Counts/Gram ratio” value ([2]; 60 min) was 10.8 and the “Heart/Muscle Counts/Gram ratio” value ([2]; 60 min) was 5.46. It also gave a Liver ([2]; 60 min) of 1.53 % injected dose.
With `COCP(C)CCP(C)C` (stereo not shown) [Example 2, Me2 P-(CH2)2 -P(Me) (CH2 OMe)] the Heart [1, 3] was 0.96 % injected dose, the “Heart/Blood Counts/Gram ratio” value [1, 3] was 1.59 and the “Heart/Liver Counts/Gram ratio” value [1, 3] was 0.51. The “Heart/Muscle Counts/Gram ratio” value [1, 3] was 9.19, the Liver [1, 3] was 24.85 % injected dose and the Heart [1, 4] was 0.43 % injected dose. For the same molecule, the “Heart/Blood Counts/Gram ratio” value [1, 4] was 7.82, the “Heart/Liver Counts/Gram ratio” value [1, 4] was 0.30 and the “Heart/Muscle Counts/Gram ratio” value [1, 4] was 4.60. The Liver [1, 4] was 26.13 % injected dose, the “general trend of biodistribution compared with dmpe complexes” value [2] was “show the same general trend” and the Heart ([2]; 2 min) was 0.96 % injected dose. For the same molecule, the “Heart/Blood Counts/Gram ratio” value ([2]; 2 min) was 9.05, the “Heart/Liver Counts/Gram ratio” value ([2]; 2 min) was 0.57 and the “Heart/Muscle Counts/Gram ratio” value ([2]; 2 min) was 4.99. The Liver ([2]; 2 min) was 20.45 % injected dose, the Heart ([2]; 60 min) was 0.94 % injected dose and the “Heart/Blood Counts/Gram ratio” value ([2]; 60 min) was 49.63. The “Heart/Liver Counts/Gram ratio” value ([2]; 60 min) was 7.26, the “Heart/Muscle Counts/Gram ratio” value ([2]; 60 min) was 4.17 and the Liver ([2]; 60 min) was 1.62 % injected dose.
In the case of `COC(CC(OC)P(C)C)P(C)C.COC(CC(OC)P(C)C)P(C)C.COC(CC(OC)P(C)C)P(C)C.[99Tc+]` (stereo not shown) [Example 16], the Blood [1, 6] is reported as 2.03 % injected dose/organ, the Heart [1, 6] is reported as 0.57 % injected dose/organ and the “Heart/Blood Counts/Gram ratio” value [1, 6] is reported as 7.08. For the same molecule, the “Heart/Liver Counts/Gram ratio” value [1, 6] was 0.94, the “Heart/Lung Counts/Gram ratio” value [1, 6] was 0.4 and the “Heart/Muscle Counts/Gram ratio” value [1, 6] was 3.98. The “Kidney + Urine” value [1, 6] was 23.3 % injected dose/organ, the Liver [1, 6] was 10.0 % injected dose/organ and the “Liver + GI” value [1, 6] was 48.6 % injected dose/organ. The Lung [1, 6] was 1.01 % injected dose/organ, the Muscle [1, 6] was 20.7 % injected dose/organ and the Blood ([2]; 2 min) was 7.15 % injected dose/organ. The Heart ([2]; 2 min) was 1.30 % injected dose/organ, the “Heart/Blood Counts/Gram ratio” value ([2]; 2 min) was 2.78 and the “Heart/Liver Counts/Gram ratio” value ([2]; 2 min) was 1.14. The “Heart/Lung Counts/Gram ratio” value ([2]; 2 min) was 0.5, the “Heart/Muscle Counts/Gram ratio” value ([2]; 2 min) was 5.01 and the “Kidney + Urine” value ([2]; 2 min) was 9.33 % injected dose/organ. For the same molecule, the Liver ([2]; 2 min) was 17.4 % injected dose/organ, the “Liver + GI” value ([2]; 2 min) was 31.5 % injected dose/organ and the Lung ([2]; 2 min) was 3.57 % injected dose/organ. It also gave a Muscle ([2]; 2 min) of 29.1 % injected dose/organ, a Blood ([2]; 60 min) of 0.64 % injected dose/organ and a Heart ([2]; 60 min) of 0.99 % injected dose/organ. The “Heart/Blood Counts/Gram ratio” value ([2]; 60 min) was 22.1, the “Heart/Liver Counts/Gram ratio” value ([2]; 60 min) was 1.64 and the “Heart/Lung Counts/Gram ratio” value ([2]; 60 min) was 0.7. For the same molecule, the “Heart/Muscle Counts/Gram ratio” value ([2]; 60 min) was 6.4, the “Kidney + Urine” value ([2]; 60 min) was 25.7 % injected dose/organ and the Liver ([2]; 60 min) was 8.81 % injected dose/organ. For the same molecule, the “Liver + GI” value ([2]; 60 min) was 43.3 % injected dose/organ, the Lung ([2]; 60 min) was 1.79 % injected dose/organ and the Muscle ([2]; 60 min) was 17.1 % injected dose/organ.
In the case of `COC(CC(OC)P(C)C)P(C)C.COC(CC(OC)P(C)C)P(C)C.O=[N][99Tc+][Cl].[Cl-]` (stereo not shown) [Example 17], the Blood [1, 6] is reported as 1.31 % injected dose/organ, the Heart [1, 6] is reported as 0.70 % injected dose/organ and the “Heart/Blood Counts/Gram ratio” value [1, 6] is reported as 13.9. For the same molecule, the “Heart/Liver Counts/Gram ratio” value [1, 6] was 4.21, the “Heart/Lung Counts/Gram ratio” value [1, 6] was 1.3 and the “Heart/Muscle Counts/Gram ratio” value [1, 6] was 6.81. For the same molecule, the “Kidney + Urine” value [1, 6] was 17.6 % injected dose/organ, the Liver [1, 6] was 2.76 % injected dose/organ and the “Liver + GI” value [1, 6] was 57.1 % injected dose/organ. It also gave a Lung [1, 6] of 0.55 % injected dose/organ, a Muscle [1, 6] of 1.60 % injected dose/organ and a Blood ([2]; 60 min) of 0.44 % injected dose/organ. The Heart ([2]; 60 min) was 1.23 % injected dose/organ, the “Heart/Blood Counts/Gram ratio” value ([2]; 60 min) was 39.1 and the “Heart/Liver Counts/Gram ratio” value ([2]; 60 min) was 2.47. For the same molecule, the “Heart/Lung Counts/Gram ratio” value ([2]; 60 min) was 2.7, the “Heart/Muscle Counts/Gram ratio” value ([2]; 60 min) was 5.51 and the “Kidney + Urine” value ([2]; 60 min) was 15.8 % injected dose/organ. The Liver ([2]; 60 min) was 6.03 % injected dose/organ, the “Liver + GI” value ([2]; 60 min) was 47.9 % injected dose/organ and the Lung ([2]; 60 min) was 0.72 % injected dose/organ. The Muscle ([2]; 60 min) was 22.9 % injected dose/organ.
For `COCC(COC)(CP(C)C)CP(C)C.COCC(COC)(CP(C)C)CP(C)C.COCC(COC)(CP(C)C)CP(C)C.[99Tc+]` [Example 18], the Blood [1, 7] was 5.14 % injected dose/organ, the Heart [1, 7] was 1.2 % injected dose/organ and the “Heart/Blood Counts/Gram ratio” value [1, 7] was 5.7. For the same molecule, the “Heart/Liver Counts/Gram ratio” value [1, 7] was 1.12, the “Heart/Lung Counts/Gram ratio” value [1, 7] was 0.6 and the “Heart/Muscle Counts/Gram ratio” value [1, 7] was 6.5. For the same molecule, the “Kidney + Urine” value [1, 7] was 14.5 % injected dose/organ, the Liver [1, 7] was 17.3 % injected dose/organ and the “Liver + GI” value [1, 7] was 36.9 % injected dose/organ. For the same molecule, the Lung [1, 7] was 1.65 % injected dose/organ, the Muscle [1, 7] was 27.4 % injected dose/organ and the Blood [1, 6] was 0.46 % injected dose/organ. The Heart [1, 6] was 1.06 % injected dose/organ, the “Heart/Blood Counts/Gram ratio” value [1, 6] was 56.1 and the “Heart/Liver Counts/Gram ratio” value [1, 6] was 5.63. The “Heart/Lung Counts/Gram ratio” value [1, 6] was 1.9, the “Heart/Muscle Counts/Gram ratio” value [1, 6] was 6.14 and the “Kidney + Urine” value [1, 6] was 15.0 % injected dose/organ. For the same molecule, the Liver [1, 6] was 2.6 % injected dose/organ, the “Liver + GI” value [1, 6] was 53.3 % injected dose/organ and the Lung [1, 6] was 0.56 % injected dose/organ. The Muscle [1, 6] was 23.7 % injected dose/organ, the Blood ([2]; 2 min) was 2.85 injected dose/organ and the Heart ([2]; 2 min) was 1.87 injected dose/organ. For the same molecule, the “Heart/Blood Counts/Gram ratio” value ([2]; 2 min) was 10.4, the “Heart/Liver Counts/Gram ratio” value ([2]; 2 min) was 1.68 and the “Heart/Lung Counts/Gram ratio” value ([2]; 2 min) was 1.2. For the same molecule, the “Heart/Muscle Counts/Gram ratio” value ([2]; 2 min) was 8.45, the “Kidney + Urine” value ([2]; 2 min) was 10.6 injected dose/organ and the Liver ([2]; 2 min) was 16.3 injected dose/organ. The “Liver + GI” value ([2]; 2 min) was 36.4 injected dose/organ, the Lung ([2]; 2 min) was 2.59 injected dose/organ and the Muscle ([2]; 2 min) was 26.3 injected dose/organ. For the same molecule, the Blood ([2]; 60 min) was 0.14 injected dose/organ, the Heart ([2]; 60 min) was 1.41 injected dose/organ and the “Heart/Blood Counts/Gram ratio” value ([2]; 60 min) was 152. For the same molecule, the “Heart/Liver Counts/Gram ratio” value ([2]; 60 min) was 8.42, the “Heart/Lung Counts/Gram ratio” value ([2]; 60 min) was 3.2 and the “Heart/Muscle Counts/Gram ratio” value ([2]; 60 min) was 8.36. For the same molecule, the “Kidney + Urine” value ([2]; 60 min) was 12.2 injected dose/organ, the Liver ([2]; 60 min) was 2.45 injected dose/organ and the “Liver + GI” value ([2]; 60 min) was 49.92 injected dose/organ. For the same molecule, the Lung ([2]; 60 min) was 0.75 injected dose/organ and the Muscle ([2]; 60 min) was 19.4 injected dose/organ.
Molecule `COC(CC(OC)P(C)C)P(C)C` (stereo not shown) [PL30] has an HEART/BLOOD ([2]; 2 min) of 2.78, an HEART/LIVER ([2]; 2 min) of 5.01 and a Heart ([2]; 2 min) of 1.30.
Molecule `CP(C)CC1(CP(C)C)COC(C)(C)OC1` [PL35] has an HEART/BLOOD ([2]; 2 min) of 4.07, an HEART/LIVER ([2]; 2 min) of 0.46 and a Heart ([2]; 2 min) of 0.88. For the same molecule, the HEART/BLOOD ([2]; 60 min) was 35.3, the HEART/LIVER ([2]; 60 min) was 1.65 and the Heart ([2]; 60 min) was 0.55.
`CCOCCOCCOC(CP(C)C)CP(C)C` [PL41] gave an HEART/BLOOD ([2]; 2 min) of 7.83, an HEART/LIVER ([2]; 2 min) of 0.83 and a Heart ([2]; 2 min) of 1.08. It also gave an HEART/BLOOD ([2]; 60 min) of 122, an HEART/LIVER ([2]; 60 min) of 4.65 and a Heart ([2]; 60 min) of 1.02.
For `COCCOCC(COC)(CP(C)C)CP(C)C` [PL46], the HEART/BLOOD ([2]; 2 min) was 14.0, the HEART/LIVER ([2]; 2 min) was 1.82 and the Heart ([2]; 2 min) was 1.87. It also gave an HEART/BLOOD ([2]; 60 min) of 345, an HEART/LIVER ([2]; 60 min) of 17.1 and a Heart ([2]; 60 min) of 1.77.
In the case of `CP(C)CC1(CP(C)C)CCOCC1` [PL49], the HEART/BLOOD ([2]; 2 min) is reported as 1.13, the HEART/LIVER ([2]; 2 min) is reported as 0.11 and the Heart ([2]; 2 min) is reported as 0.32. It also gave an HEART/BLOOD ([2]; 60 min) of 131, an HEART/LIVER ([2]; 60 min) of 0.24 and a Heart ([2]; 60 min) of 0.18.
